Experimental findings from patent US10730850B2, “Pyridinylmethyl carbamimidoylcarbamate derivatives and their use as AOC3 inhibitors” (Boehringer Ingelheim International GmbH, priority 2016, dated 2020) are described below.

AOC3, sequence (Q16853 whole entry): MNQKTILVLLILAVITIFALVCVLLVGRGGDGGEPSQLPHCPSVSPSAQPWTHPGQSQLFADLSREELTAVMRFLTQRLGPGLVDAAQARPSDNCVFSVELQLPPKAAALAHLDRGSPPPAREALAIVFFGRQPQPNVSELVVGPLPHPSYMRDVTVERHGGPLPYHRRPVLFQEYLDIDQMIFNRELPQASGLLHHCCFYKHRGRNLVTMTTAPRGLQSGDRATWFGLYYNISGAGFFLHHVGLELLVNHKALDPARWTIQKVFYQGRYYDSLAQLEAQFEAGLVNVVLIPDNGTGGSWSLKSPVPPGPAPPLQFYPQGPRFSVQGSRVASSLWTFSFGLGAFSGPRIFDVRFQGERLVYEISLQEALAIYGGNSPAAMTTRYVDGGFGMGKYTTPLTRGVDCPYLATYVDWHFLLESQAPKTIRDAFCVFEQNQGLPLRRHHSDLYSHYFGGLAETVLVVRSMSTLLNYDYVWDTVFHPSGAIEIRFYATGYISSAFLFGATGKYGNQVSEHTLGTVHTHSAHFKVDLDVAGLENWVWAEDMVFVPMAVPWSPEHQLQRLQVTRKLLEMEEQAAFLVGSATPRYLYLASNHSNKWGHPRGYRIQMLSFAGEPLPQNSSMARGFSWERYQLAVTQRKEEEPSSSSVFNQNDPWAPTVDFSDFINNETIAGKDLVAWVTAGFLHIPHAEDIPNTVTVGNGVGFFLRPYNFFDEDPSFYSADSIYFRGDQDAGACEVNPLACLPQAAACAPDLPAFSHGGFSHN

In the assay the target is AOC3 (Homo sapiens (Human), UniProt Q16853). Briefly: MAO-Glo AOC3 assay (recombinant CHO cells overexpressing AOC3). The assay is classed as biochemical. As to conditions: Table 1, read-out: AOC3 IC50. The source says:
The MAO-Glo™ Assay (commercial available from PROMEGA, # V1402) provides a sensitive method for the measurement of monoamine oxidase (MAO) activity (Valley, M. P. et al., 2006, Anal. Biochem. 359: 238-246) from a variety of tissues, biofluids or recombinant expressed or purified enzymes. As substrate a derivate of the beetle luciferin ((4S)-4,5-dihydro-2-(6-hydroxybenzothiazolyl)-4-thiazole-carboxylic acid) is used, which is oxidized at a primary amine moiety. After a spontaneous elimination and a catalyzed esterase reaction, the turnover of the luciferine by the luciferase is recorded as a signal of AOC3 activity.
An aliquot of 3 μL of the compound dilution is added to a 384 well plate (Optiplate, PS, flat bottom, white, PERKIN ELMER, #6007290) with a final DMSO concentration of 6.6%. Recombinant CHO cells, overexpressing the human (1500 cells/well), mouse (1000 cells/well) or rat (500 cells/well) AOC3 enzyme are diluted in reaction buffer and added in a volume of 15 μL to the wells. After incubation for 20 minutes at 37° C., 2 μL of MAO substrate (dissolved in DMSO at 16 mM, adjusted to assay concentration in reaction buffer to a final assay concentration of 20 μM) is added and further incubated for 60 minutes at 37° C. The turnover of the substrate is determined by the addition of 20 μL of the detection-mix which was generated by the addition of reconstitution buffer with esterase (PROMEGA, # V1402) to the luciferine detection reagent (PROMEGA, # V1402). After an incubation period of 20 minutes, the luminescent signal is measured with Envision 2104 Multilabel Reader (PERKIN ELMER).
In the following table the activity expressed as IC50 (nM) of compounds according to the invention is presented wherein the IC50 values are determined in the MAO-Glo™ AOC3 assay as described hereinbefore. The term “Example” refers to the example numbers according to the following experimental section.
On to `N=C(N)NC(=O)OCc1ccnc(N2CCC3(C=Cc4ccccc43)CC2)c1F` [Example 1.049], for which the 50% inhibitory concentration (IC50) came to 22 nM.

`N=C(N)NC(=O)OCc1ccnc(N2CCC3(CCc4ccccc43)CC2)c1F` [Example 1.053]: the IC50 is 83 nM.

In the case of `N=C(N)NC(=O)OCc1ccnc(N2CCC(c3cccc(Cl)c3)CC2)c1F` [Example 1.075], the IC50 came out at 14 nM.

On to `N=C(N)NC(=O)OCc1ccnc(N2CCC(c3ccc(C(=O)O)cc3)CC2)c1F` [Example 1.082], for which the 50% inhibitory concentration (IC50) amounted to 2 nM.

Take `Cc1cnc(C2=CCN(c3nccc(COC(=O)NC(=N)N)c3F)CC2)o1` [Example 1.015]: the half-inhibitory concentration (IC50) is 17 nM.

As for `Cc1cccc(C2CCN(c3nccc(COC(=O)NC(=N)N)c3F)CC2)c1` [Example 1.028], the IC50 was found to be 10 nM.

As for `N=C(N)NC(=O)OCc1ccnc(N2CCN(C3CCCC3)C(=O)C2)c1F` [Example 1.021], the 50% inhibitory concentration (IC50) came out at 26 nM.

Turning to `N=C(N)NC(=O)OCc1ccnc(N2CCC(c3ncc(Cl)cn3)CC2)c1F` [Example 1.079], the IC50 worked out at 11 nM.

Consider `N=C(N)NC(=O)OCc1ccnc(N2CC=C(c3ncc(F)cn3)CC2)c1F` [Example 1.042], for which the IC50 came out at 28 nM.

For the compound `N=C(N)NC(=O)OCc1ccnc(N2CCC(N3CC[S+]([O-])CC3)CC2)c1F` [Example 1.080], the IC50 stood at 86 nM.

Take `N=C(N)NC(=O)OCc1ccnc(N2CCN(c3nccs3)CC2)c1F` [Example 1.024]: the half-maximal inhibitory concentration (IC50) turned out to be 18 nM.

Take `CN(C)Cc1ccc(C2CCN(c3nccc(COC(=O)NC(=N)N)c3F)CC2)cc1` [Example 1.090]: the IC50 was found to be 10 nM.

`Cc1ccc(N2CCN(c3nccc(COC(=O)NC(=N)N)c3F)CC2)nc1` [Example 1.038]: the IC50 was found to be 14 nM.

Take `N=C(N)NC(=O)OCc1ccnc(N2CC(c3ccccn3)C2)c1F` [Example 1.002]: the half-maximal inhibitory concentration (IC50) was determined as 172 nM.

Consider `N=C(N)NC(=O)OCc1ccnc(N2CC=C(c3ccccn3)CC2)c1F` [Example 1.006], for which the half-maximal inhibitory concentration (IC50) was 18 nM.

For `N=C(N)NC(=O)OCc1ccnc(N2C3CCC2CC(c2ccccc2)C3)c1F` (stereo not shown) [Example 1.052], the concentration for half-maximal inhibition (IC50) was determined as 84 nM.

As for `N=C(N)NC(=O)OCc1ccnc(N2CCN(c3ncc(F)cn3)CC2)c1F` [Example 1.045], the IC50 stood at 24 nM.

As to `Cc1cnc(C2CCN(c3nccc(COC(=O)NC(=N)N)c3F)CC2)o1` [Example 1.019], the IC50 was 84 nM.

As to `N#Cc1ccc(N2CCN(c3nccc(COC(=O)NC(=N)N)c3F)CC2)c(C(F)(F)F)c1` [Example 1.105], the IC50 was 31 nM.

Take `N=C(N)NC(=O)OCc1ccnc(N2CC=C(c3ncccn3)CC2)c1F` [Example 1.007]: the half-maximal inhibitory concentration (IC50) was determined as 96 nM.

For `COC(=O)c1cnc(N2CCN(c3nccc(COC(=O)NC(=N)N)c3F)CC2)nc1` [Example 1.093], the IC50 is 17 nM.

As for `Cc1ccc(N2CCN(c3nccc(COC(=O)NC(=N)N)c3F)CC2)cc1` [Example 1.032], the IC50 was determined as 11 nM.

`N#Cc1ccc(N2CCN(c3nccc(COC(=O)NC(=N)N)c3F)CC2)cn1` [Example 1.057]: the IC50 is 3 nM.

With `N=C(N)NC(=O)OCc1ccnc(N2CC=C(c3ccc(Cl)cc3)CC2)c1F` [Example 1.069], the IC50 is 15 nM.

For the compound `N=C(N)NC(=O)OCc1ccnc(N2CC=C(c3ccccc3)CC2)c1F` [Example 1.005], the IC50 amounted to 17 nM.

With `CC(C)(C)OC(=O)N1CC(C2CCN(c3nccc(COC(=O)NC(=N)N)c3F)CC2)C1` [Example 1.102], the 50% inhibitory concentration (IC50) was determined as 65 nM.

`N#Cc1ccc(C2CN(c3cccc(COC(=O)NC(=N)N)n3)C2)cc1` [Example 1.003]: the IC50 amounted to 16 nM.

Turning to `N#CC1CCN(C2CCN(c3nccc(COC(=O)NC(=N)N)c3F)CC2)CC1` [Example 1.070], the IC50 turned out to be 77 nM.

With `Cc1ccccc1N1CCN(c2nccc(COC(=O)NC(=N)N)c2F)CC1` [Example 1.034], the IC50 came out at 58 nM.

Take `N=C(N)NC(=O)OCc1ccnc(N2CCC(N3CCCCC3=O)CC2)c1F` [Example 1.046]: the 50% inhibitory concentration (IC50) was determined as 128 nM.

`N=C(N)NC(=O)OCc1ccnc(N2CCN(c3cccnn3)CC2)c1F` [Example 1.013]: the half-maximal inhibitory concentration (IC50) was 22 nM.

Consider `COc1cnc(C2CCN(c3nccc(COC(=O)NC(=N)N)c3F)CC2)nc1` [Example 1.071], for which the IC50 was determined as 8 nM.

Take `Cc1cccc(C)c1N1CCN(c2nccc(COC(=O)NC(=N)N)c2F)CC1` [Example 1.060]: the 50% inhibitory concentration (IC50) was 217 nM.

With `COc1cnc(N2CCN(c3nccc(COC(=O)NC(=N)N)c3F)CC2)nc1` [Example 1.073], the IC50 stood at 10 nM.

On to `N=C(N)NC(=O)OCc1ccnc(N2CC=C(c3ncco3)CC2)c1F` [Example 1.004], for which the IC50 came out at 38 nM.

`N=C(N)NC(=O)OCc1ccnc(N2CC3CC2CN3c2cccc(F)c2)c1F` (stereo not shown) [Example 1.066]: the IC50 amounted to 278 nM.

In the case of `N=C(N)NC(=O)OCc1ccnc(N2CC(c3ccc(OCC4CC4)cc3)C2)c1F` [Example 1.081], the IC50 turned out to be 22 nM.

As to `N=C(N)NC(=O)OCc1ccnc(N2CCN(c3ccccc3)CC2)c1F` [Example 1.009], the IC50 is 41 nM.

In the case of `COC(=O)c1ccc(N2CCN(c3nccc(COC(=O)NC(=N)N)c3F)CC2)nn1` [Example 1.094], the IC50 came to 14 nM.

In the case of `N=C(N)NC(=O)OCc1ccnc(N2CCC(N3CCOCC3)CC2)c1F` [Example 1.025], the concentration for half-maximal inhibition (IC50) came to 92 nM.

As to `N=C(N)NC(=O)OCc1ccnc(N2CCC(c3ccccc3)CC2)c1F` [Example 1.008], the IC50 stood at 15 nM.

In the case of `Cc1ccc(N2CCN(c3nccc(COC(=O)NC(=N)N)c3F)CC2)cc1C` [Example 1.063], the IC50 came to 13 nM.

For `N=C(N)NC(=O)OCc1ccnc(N2CCN(c3ccccc3F)CC2)c1F` [Example 1.043], the half-maximal inhibitory concentration (IC50) was 13 nM.

With `N=C(N)NC(=O)OCc1ccnc(N2CCN(c3ccccc3Cl)CC2)c1F` [Example 1.076], the half-inhibitory concentration (IC50) amounted to 39 nM.

In the case of `Cc1ccc(C2CCN(c3nccc(COC(=O)NC(=N)N)c3F)CC2)cc1` [Example 1.029], the IC50 worked out at 9 nM.

In the case of `N=C(N)NC(=O)OCc1ccnc(N2CCC(C3CCCCC3)CC2)c1F` [Example 1.020], the 50% inhibitory concentration (IC50) amounted to 35 nM.

Regarding `N=C(N)NC(=O)OCc1ccnc(N2CC(c3ccccc3)C2)c1F` [Example 1.001], the IC50 came to 98 nM.

As for `N=C(N)NC(=O)OCc1ccnc(N2CCC(N3CCC(C(N)=O)CC3)CC2)c1F` [Example 1.088], the IC50 came out at 48 nM.

As for `N=C(N)NC(=O)OCc1ccnc(N2CCN(c3ncncn3)CC2)c1F` [Example 1.018], the IC50 was 17 nM.

Turning to `CCOc1ccc(C2CCN(c3nccc(COC(=O)NC(=N)N)c3F)CC2)cn1` [Example 1.087], the IC50 stood at 12 nM.

For the compound `N=C(N)NC(=O)OCc1ccnc(N2CCN(c3ccc(C(F)(F)F)cc3)CC2)c1F` [Example 1.097], the IC50 was 11 nM.

With `N=C(N)NC(=O)OCc1ccnc(N2CCC(N3CCOC3=O)CC2)c1F` [Example 1.026], the IC50 was 111 nM.

Regarding `CC1CN(c2nccc(COC(=O)NC(=N)N)c2F)CCN1c1ccccc1` (stereo not shown) [Example 1.035], the IC50 is 14 nM.

For the compound `N=C(N)NC(=O)OCc1ccnc(N2CCN(c3ncc(C(F)(F)F)cn3)CC2)c1F` [Example 1.098], the IC50 came to 15 nM.

With `CCc1ccc(N2CCN(c3nccc(COC(=O)NC(=N)N)c3F)CC2)cc1` [Example 1.062], the IC50 stood at 11 nM.

Turning to `N=C(N)NC(=O)OCc1ccnc(N2CCN(c3ncccn3)CC2)c1F` [Example 1.014], the IC50 stood at 41 nM.

On to `Cc1cnc(C2=CCN(c3nccc(COC(=O)NC(=N)N)c3F)CC2)nc1` [Example 1.030], for which the IC50 came out at 23 nM.

In the case of `N#Cc1cnc(N2CCN(c3nccc(COC(=O)NC(=N)N)c3F)CC2)nc1` [Example 1.059], the 50% inhibitory concentration (IC50) came to 16 nM.

As to `N=C(N)NC(=O)OCc1ccnc(N2CCN(c3ccccn3)CC2)c1F` [Example 1.012], the IC50 is 62 nM.

With `N=C(N)NC(=O)OCc1ccnc(N2CCC(c3nccs3)CC2)c1F` [Example 1.022], the 50% inhibitory concentration (IC50) turned out to be 49 nM.

For the compound `N=C(N)NC(=O)OCc1ccnc(N2CCC(c3ccc(C(F)(F)F)cc3)CC2)c1F` [Example 1.096], the half-maximal inhibitory concentration (IC50) amounted to 12 nM.
